Measurements: patent US20180305332A1, “Bispiperidinyl Derivatives as Liver X Receptor Beta Agonists, Compositions, and Their Use” (Merck Sharp & Dohme Corp., priority 2015, published 2018)

What was measured:
[1] = target: T1, GST tagged LXRalpha LBD (ligand binding domain) (Homo sapiens, UniProt Q13133); experiment: LanthaScreen TR-FRET Liver X Receptor Coactivator Assay, LXR alpha-LBD; assay type: biochemical; details: relative to reference T0901317; for EC50: read-out: LXR alpha IP; for Emax: activity at max dose (efficacy), read-out: LXR alpha act @ max dose (%)
T1 construct: purchased Invitrogen pv4655
T1 sequence (Q13133 209-447 limits assumed): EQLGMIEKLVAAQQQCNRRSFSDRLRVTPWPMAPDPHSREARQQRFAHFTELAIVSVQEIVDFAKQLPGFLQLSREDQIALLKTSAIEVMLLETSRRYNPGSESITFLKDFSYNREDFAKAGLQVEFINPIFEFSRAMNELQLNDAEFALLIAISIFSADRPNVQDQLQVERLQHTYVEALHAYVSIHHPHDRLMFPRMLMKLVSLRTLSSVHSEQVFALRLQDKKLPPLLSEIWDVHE
Procedure, shortened: (§1)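 Cmpd + LBD → add fluorescein coactivator peptide/Tb-anti-GST Ab mix → incubate RT → TR-FRET readout. IP and Emax referenced to T0901317 (dual LXR agonist).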

[2] = target: T2, GST tagged LXRbeta LBD (ligand binding domain) (Homo sapiens, UniProt P55055); experiment: LanthaScreen TR-FRET Liver X Receptor Coactivator Assay, LXR beta-LBD; assay type: biochemical; details: relative to reference T0901317; for EC50: Inflection Point (potency), co-activator recruitment, read-out: LXR beta IP; for Emax: read-out: LXR beta act @ max dose (%)
T2 construct: purchased Invitrogen pv4658.pps
T2 sequence (P55055 222-460 limits assumed): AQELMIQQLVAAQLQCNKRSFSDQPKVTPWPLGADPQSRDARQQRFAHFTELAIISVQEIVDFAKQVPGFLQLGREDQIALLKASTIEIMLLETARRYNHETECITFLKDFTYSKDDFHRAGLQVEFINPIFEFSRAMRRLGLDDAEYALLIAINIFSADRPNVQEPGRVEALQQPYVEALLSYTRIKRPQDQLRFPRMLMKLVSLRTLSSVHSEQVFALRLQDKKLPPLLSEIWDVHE
Procedure, shortened: as §1

[3] = Inflection Point (potency), co-activator recruitment
[4] = activity at max dose (efficacy)

Row | Compound | EC50 [1, 3] | Emax [1] | EC50 [2] | Emax [2, 4] | LXR alpha IP (nM) [1, 3] | LXR beta act @ max dose (%) [2, 4]
1 | CC(C)C(O)(C(=O)N1CCC(C2CCN(c3ccc(C(=O)N(C)C)c(Cl)n3)CC2)CC1)C(F)(F)F (stereo in doubt) [Example B-6, 2-chloro-6-{1′-[(2S)-2-hydroxy-3-methyl-2-(trifluoromethyl)butanoyl]-4,4′-bipiperidin-1-yl}-N,N-dimethylpyridine-3-carboxamide] | 1670 nM | 46% | 38 nM | 108% | – | –
2 | CCCC(O)(C(=O)N1CCC(C2CCN(c3ccc(C(=O)N(C)C)c(Cl)c3)CC2)CC1)C(F)(F)F (centres unmarked) [Example A-70, 2-chloro-4-{1′-[2-hydroxy-2-(trifluoromethyl)pentanoyl]-4,4′-bipiperidin-1-yl}-N,N-dimethylbenzamide] | 3000 nM | 52% | 177 nM | 109% | – | –
3 | CN(C)C(=O)c1ccc(N2CCC(C3CCN(C(=O)C(C)(C)c4ccccc4Cl)CC3)CC2)cc1Cl [Example A-83, 2-chloro-4-{1′-[2-(2-chlorophenyl)-2-methylpropanoyl]-4,4′-bipiperidin-1-yl}-N,N-dimethylbenzamide] | 594 nM | 74% | 15 nM | 115% | – | –
4 | Cc1ccccc1S(=O)(=O)N1CCC(C2CCN(c3ccc(C(=O)N(C)C)c(Cl)c3)CC2)CC1 [Example A-100, 2-chloro-N,N-dimethyl-4-{1′-[(2-methylphenyl)sulfonyl]-4,4′-bipiperidin-1-yl}benzamide] | 5770 nM | 48% | 140 nM | 121% | – | –
5 | CN(C)C(=O)c1ccc(N2CCC(C3CCN(C(=O)C4(c5ccc(O)cc5)CCCC4)CC3)CC2)cc1Cl [Example A-67, 2-chloro-4-(1′-{[1-(4-hydroxyphenyl)cyclopentyl]carbonyl}-4,4′-bipiperidin-1-yl)-N,N-dimethylbenzamide] | – | 26% | 107 nM | 75% | NO IP | –
6 | CC(C)C(O)(C(=O)N1CCC(C2CCN(c3ccc(C(=O)N(C)C)c(Cl)c3)CC2)CC1)C1CC1 (centres unmarked) [Example A-110, 2-chloro-4-[1′-(2-cyclopropyl-2-hydroxy-3-methylbutanoyl)-4,4′-bipiperidin-1-yl]-N,N-dimethylbenzmamide] | 1040 nM | 69% | 52 nM | 127% | – | –
7 | CN(C)C(=O)c1ccc(N2CCC(C3CCN(C(=O)[C@](O)(c4ccccc4)C(F)(F)F)CC3)CC2)cc1Cl [Example A-13, 2-chloro-N,N-dimethyl-4-{1′-[(2R)-3,3,3-trifluoro-2-hydroxy-2-phenylpropanoyl]-4,4′-bipiperidin-1-yl}benzamide] | 1510 nM | 19% | 52 nM | 106% | – | –
8 | CN(C)C(=O)c1ccc(N2CCC(C3CCN(C(=O)c4c(Cl)cccc4Cl)CC3)CC2)nc1Cl [Example B-10, 2-chloro-6-{1′-[(2,6-dichlorophenyl)carbonyl]-4,4′-bipiperidin-1-yl}-N,N-dimethylpyridine-3-carboxamide] | 1370 nM | 55% | 161 nM | 106% | – | –
9 | COc1ccccc1C1(C(=O)N2CCC(C3CCN(c4ccc(C(=O)N(C)C)c(Cl)c4)CC3)CC2)CCC1 [Example A-87, 2-chloro-4-(1′-{[1-(2-methoxyphenyl)cyclobutyl]carbonyl}-4,4′-bipiperidin-1-yl)-N,N-dimethylbenzamide] | 499 nM | 58% | 11 nM | 110% | – | –
10 | CN(C)C(=O)c1ccc(N2CCC(C3CCN(C(=O)C4(c5ccccc5Cl)CCCC4)CC3)CC2)cc1Cl [Example A-94, 2-chloro-4-(1′-{[1-(2-chlorophenyl)cyclopentyl]carbonyl}-4,4′-bipiperidin-1-yl)-N,N-dimethylbenzamide] | 250 nM | 67% | 13 nM | 124% | – | –
11 | CN(C)C(=O)c1ccc(N2CCC(C3CCN(C(=O)C(F)(F)c4ccccc4)CC3)CC2)cc1Cl [Example A-64, 2-chloro-4-{1′-[difluoro(phenyl)acetyl]-4,4′-bipiperidin-1-yl}-N,N-dimethylbenzamide] | 936 nM | 74% | 54 nM | 144% | – | –
12 | CC(C)CC(O)(C(=O)N1CCC(C2CCN(c3ccc(C(=O)N(C)C)c(Cl)c3)CC2)CC1)C(F)(F)F (centres unmarked) [Example A-5, 2-chloro-4-{1′-[2-hydroxy-4-methyl-2-(trifluoromethyl)pentanoyl]-4,4′-bipiperidin-1-yl}-N,N-dimethylbenzamide] | 869 nM | 55% | 51 nM | – | – | 113%
13 | CN(C)C(=O)c1ccc(N2CCC(C3CCN(C(=O)C(C)(O)C(F)(F)F)CC3)CC2)nc1Cl (centres unmarked) [Example B-11, 2-chloro-N,N-dimethyl-6-[1′-(3,3,3-trifluoro-2-hydroxy-2-methylpropanoyl)-4,4′-bipiperidin-1-yl]pyridine-3-carboxamide] | 2200 nM | 48% | 177 nM | 116% | – | –

Further lines, results first:

Row | EC50 [1, 3] | Emax [1] | EC50 [2] | Emax [2, 4] | LXR alpha IP (nM) [1, 3] | LXR beta act @ max dose (%) [2, 4] | Compound
14 | 1670 nM | 18% | 437 nM | 81% | – | – | COC(=O)[C@@H]1CCCN1C(=O)c1ccc(N2CCC(C3CCN(C(=O)[C@](O)(c4ccccc4)C(F)(F)F)CC3)CC2)cc1Cl [Example E-22, methyl 1-[(2-chloro-4-{1′-[(2R)-3,3,3-trifluoro-2-hydroxy-2-phenylpropanoyl]-4,4′-bipiperidin-1-yl}phenyl)carbonyl]prolinate]
15 | 2770 nM | 41% | 400 nM | 99% | – | – | CC(C)C(O)(C(=O)N1CCC(C2CCN(c3ccc(C(=O)N(C)C)c(F)c3)CC2)CC1)C(F)(F)F [Example D-2, 2-fluoro-4-{1′-[2-hydroxy-3-methyl-2-(trifluoromethyl)butanoyl]-4,4′-bipiperidin-1-yl}-N,N-dimethylbenzamide]
16 | 772 nM | 18% | 380 nM | 49% | – | – | CS(=O)(=O)c1ccc(N2CCC(C3CCN(C(=O)c4c(F)cccc4F)CC3)CC2)cc1Cl [Example D-6, 1-[3-chloro-4-(methylsulfonyl)phenyl]-1′-[(2,6-difluorophenyl)carbonyl]-4,4′-bipiperidine]
17 | 2490 nM | 64% | 185 nM | 134% | – | – | CC(C)(C(=O)N1CCC(C2CCN(c3cccc(S(C)(=O)=O)c3)CC2)CC1)c1ccccc1 [Example D-8, 1-(2-methyl-2-phenylpropanoyl)-1′-[3-(methylsulfonyl)phenyl]-4,4′-bipiperidine]
18 | 3140 nM | 33% | 284 nM | 88% | – | – | O=C(c1ccc(N2CCC(C3CCN(C(=O)[C@@](O)(c4ccccc4)C(F)(F)F)CC3)CC2)cc1Cl)N1CCCC1 (single isomer, unassigned) [Example E-19]
19 | 893 nM | 24% | 71 nM | 95% | – | – | CC(C)N(C)C(=O)c1ccc(N2CCC(C3CCN(C(=O)[C@](O)(c4ccccc4)C(F)(F)F)CC3)CC2)cc1Cl [Example E-33, 2-chloro-N-methyl-N-(1-methylethyl)-4-{1′-[(2R)-3,3,3-trifluoro-2-hydroxy-2-phenylpropanoyl]-4,4′-bipiperidin-1-yl}benzamide]
20 | 1450 nM | 43% | 157 nM | 101% | – | – | CC(C)C(O)(C(=O)N1CCC(C2CCN(c3cc(F)c(C(=O)N(C)C)c(F)c3)CC2)CC1)C(F)(F)F [Example D-1, 2,6-difluoro-4-{1′-[2-hydroxy-3-methyl-2-(trifluoromethyl)butanoyl]-4,4′-bipiperidin-1-yl}-N,N-dimethylbenzamide]
